Tests used:
RaNTT1 = target: T1, RaNTT1 (Rozella allomycis, UniProt A0A075B2H2); assay: competition with […]-ATP uptake in NTT-expressing E. coli; assay type: cell-based; conditions: 50,000x excess unlabelled competitor; PBS
T1 construct: gene O9G_001541; PCR-amplified gene, N-terminal His10 tag, pET16b, in E. coli Rosetta2 DE3 pLysS cells
T1 sequence (A0A075B2H2 1-597): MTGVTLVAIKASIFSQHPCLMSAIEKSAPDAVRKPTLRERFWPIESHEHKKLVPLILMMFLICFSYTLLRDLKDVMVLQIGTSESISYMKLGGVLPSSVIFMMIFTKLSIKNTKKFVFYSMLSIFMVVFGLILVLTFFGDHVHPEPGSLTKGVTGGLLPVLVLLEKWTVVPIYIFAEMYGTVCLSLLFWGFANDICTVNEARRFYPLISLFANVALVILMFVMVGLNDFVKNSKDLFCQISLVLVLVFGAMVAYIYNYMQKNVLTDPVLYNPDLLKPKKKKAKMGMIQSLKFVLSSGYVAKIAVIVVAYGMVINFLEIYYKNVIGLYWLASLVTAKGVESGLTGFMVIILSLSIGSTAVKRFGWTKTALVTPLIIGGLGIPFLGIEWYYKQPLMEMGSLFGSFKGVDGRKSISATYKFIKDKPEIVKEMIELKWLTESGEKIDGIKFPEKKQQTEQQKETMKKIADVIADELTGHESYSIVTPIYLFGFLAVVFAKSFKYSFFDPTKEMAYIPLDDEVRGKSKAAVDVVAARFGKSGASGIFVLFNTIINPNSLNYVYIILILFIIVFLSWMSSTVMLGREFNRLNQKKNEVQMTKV

EcNTT1 = target: T2, EcNTT1 (Encephalitozoon cuniculi, UniProt Q8SRA2); assay: […]-nucleotide uptake by NTT-expressing E. coli, […] min; assay type: cell-based; conditions: PBS; labelled compound
T2 construct: gene NTT1; full-length, N-terminal His10 tag, pET16b, in E. coli Rosetta2 DE3 pLysS cells
T2 sequence (Q8SRA2 1-559): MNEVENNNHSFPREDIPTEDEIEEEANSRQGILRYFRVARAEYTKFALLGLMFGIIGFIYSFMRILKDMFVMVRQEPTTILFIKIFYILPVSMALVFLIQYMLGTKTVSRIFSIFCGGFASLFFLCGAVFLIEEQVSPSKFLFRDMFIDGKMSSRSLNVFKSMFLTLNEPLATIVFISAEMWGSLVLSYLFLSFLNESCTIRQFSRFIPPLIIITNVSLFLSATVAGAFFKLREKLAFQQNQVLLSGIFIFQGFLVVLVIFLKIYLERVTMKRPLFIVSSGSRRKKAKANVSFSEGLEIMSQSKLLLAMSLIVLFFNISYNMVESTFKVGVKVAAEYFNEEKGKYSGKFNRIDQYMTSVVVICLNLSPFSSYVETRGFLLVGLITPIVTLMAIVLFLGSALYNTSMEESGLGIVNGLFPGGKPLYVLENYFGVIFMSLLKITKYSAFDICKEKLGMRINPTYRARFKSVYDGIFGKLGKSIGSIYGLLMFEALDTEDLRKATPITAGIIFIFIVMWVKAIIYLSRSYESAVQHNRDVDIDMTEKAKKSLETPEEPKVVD

AncNTTRoz/Mic = conditions: read-out: apparent Km; PBS; 32P-labelled ATP plus unlabelled ATP; labelled compound
AncNTTMic = conditions: read-out: apparent Km; PBS; 32P-labelled ATP plus unlabelled ATP; labelled compound

Question: How did the “residual [32P]-ATP uptake” value (RaNTT1) turn out when `Nc1ncnc2c1ncn2[C@@H]1O[C@H](COP(=O)(O)OP(=O)(O)O)[C@@H](O)[C@H]1O` [ADP] was run?
Answer: The value was “transport by R. allomycis RaNTT1 was strongly reduced only by cold ATP and ADP”.

Question: For `Nc1nc2c(ncn2[C@@H]2O[C@H](COP(=O)(O)OP(=O)(O)OP(=O)(O)O)[C@@H](O)[C@H]2O)c(=O)[nH]1` [GTP], which “[32P]-nucleotide uptake by NTT-expressing E. coli, 30 min” value (EcNTT1) is on record?
Answer: Its value is “GTP is transported at high levels for all of the Microsporidia NTTs”.

Question: `Nc1ncnc2c1ncn2[C@@H]1O[C@H](COP(=O)(O)OP(=O)(O)OP(=O)(O)O)[C@@H](O)[C@H]1O` [ATP] was tested. Which Km (AncNTTRoz/Mic) did it give?
Answer: The Km was 0.8 ± 0.15 µM.

Question: What about the Km (AncNTTMic) of the same compound?
Answer: The Km was 1.9 ± 1.35 µM.
